Consider 25 compounds from US20060004197A1, “Sulfonamide-based compounds as protein tyrosine kinase inhibitors” (priority 2004, published 2006).

For the assay, the target named is T1, Recombinant human Src (Homo sapiens, UniProt P12931).
T1 construct: made in house; host or cells: baculovirus-insect cell system
Kind of assay: Src tyrosine kinase activity, poly E4Y / 32P-ATP phosphorylation assay. Type of assay: biochemical. How it is done:
Recombinant human Src was expressed using the baculovirus-insect cell system and purified as published (Budde et al., 1993 and 2000).
The tyrosine kinase activity of Src, Csk and FGFr was determined using poly E4Y and ^32P-ATP. Briefly, enzymes were assayed in a reaction mixture consisting of 0.15 M EPPS-NaOH (pH 8.0) with 6 mM MgCl2, 0.2 mM γ^32P-ATP (0.2-0.4 mCi/μmol), 10% glycerol, 0.1% Triton X-100, and poly E4Y. Poly E4Y is a synthetic peptide whose phosphorylation is measured in this assay by the addition of the radioactively labeled phosphate from the ATP (Budde et al., 1995). […] When ATP was varied (0, 50, 100 and 250 μM), poly E4Y was kept constant at 150 μg/ml.

[1] abbreviates: Table 3, compound at 15 μg/mL, read-out: % Inhibition at 15 μg/mL Src (%).
Setting [2] is: Table 2, compound at 15 ug/mL, read-out: % Inhibition at 15 ug/mL Src (%).
Setting [3] is: Table 6, Formula V compounds, compound at 15 μg/mL, read-out: % Inhibition at 15 μg/mL Src (%).
The mark [4] stands for this setting: compound at 15 μg/mL, read-out: % Inhibition at 15 μg/mL Src %.
Where [5] appears, read: poly E4Y / 32P-ATP, Formula IV compounds.
The mark [6] stands for this setting: Table 3, Formula II compounds, NI = no inhibition at 100 μg/mL.

Each structure is given as a SMILES string. Read-outs that look alike come from different tables or passages of the source.

T1 sequence (P12931 whole entry): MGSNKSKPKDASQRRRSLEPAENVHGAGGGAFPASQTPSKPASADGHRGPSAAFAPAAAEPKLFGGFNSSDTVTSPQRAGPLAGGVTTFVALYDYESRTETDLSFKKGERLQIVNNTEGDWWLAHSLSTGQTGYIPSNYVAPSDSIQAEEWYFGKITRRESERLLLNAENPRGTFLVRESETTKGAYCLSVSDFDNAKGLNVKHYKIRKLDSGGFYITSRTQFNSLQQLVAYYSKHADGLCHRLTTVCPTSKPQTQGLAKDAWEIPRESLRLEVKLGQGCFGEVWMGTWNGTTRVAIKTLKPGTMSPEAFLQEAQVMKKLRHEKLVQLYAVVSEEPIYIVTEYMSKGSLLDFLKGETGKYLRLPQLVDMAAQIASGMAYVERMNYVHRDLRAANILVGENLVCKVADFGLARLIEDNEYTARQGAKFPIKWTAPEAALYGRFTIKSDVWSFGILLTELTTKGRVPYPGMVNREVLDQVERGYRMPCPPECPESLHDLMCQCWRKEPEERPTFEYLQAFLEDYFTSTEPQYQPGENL

Take `Cc1ccc(S(=O)(=O)Nc2ccc(NS(=O)(=O)c3cccs3)cc2NS(=O)(=O)c2ccc(C)cc2)cc1` [Compound 22i, N-[3,4-bis-(4-toluenesulfonylamino)-phenyl]-thiophene-2-sulfonamide]: under setting [1], the inhibition at 15 µg/mL worked out at 26%.

For the compound `Cc1ccc(S(=O)(=O)Nc2cc(NCC3CCCCC3)c([N+](=O)[O-])cc2NS(=O)(=O)c2ccc(C)cc2)cc1` [Compound 9h, N-[4-(cyclohexylmethyl-amino)-5-nitro-2-(4-toluenesulfonylamino)-phenyl]-4-toluenesulfonamide], the inhibition at 15 µg/mL under setting [2] is 22%.

In the case of `COc1ccc(Oc2ccc3c(c2)NS(=O)(=O)N3)cc1` [Compound 72d, 5-(4-methoxy-phenoxy)-1,3-dihydro-benzo[1,2,5]thiadiazole 2,2-dioxide], the inhibition at 15 µg/mL under setting [3] is 12%.

Regarding `Cc1ccc(C(=O)Nc2cc(NCc3cccc4ccccc34)c([N+](=O)[O-])cc2NC(=O)c2ccc(C)cc2)cc1` [Compound 71bb, N-{4-[(naphthalen-1-ylmethyl)-amino]-5-nitro-2-(4-toluoylamino)-phenyl}-4-toluamide], under setting [4], the inhibition at 15 µg/mL came to 22%.

As for `COc1ccc(Oc2ccc(NCc3ccc(C)cc3)c(NS(=O)(=O)c3ccc(C)cc3)c2)cc1` [Compound 71jj, N-[5-(4-methoxy-phenoxy)-2-(4-methyl-benzylamino)-phenyl]-4-toluenesulfonamide], the inhibition at 15 µg/mL under setting [4] stood at 19%.

For the compound `CCCC(=O)Nc1cc(Oc2ccc(OC)cc2)ccc1NS(=O)(=O)c1ccc(C)cc1` [Compound 71z, N-[5-(4-methoxy-phenoxy)-2-(4-toluenesulfonylamino)-phenyl]-butyramide], under setting [4], the inhibition at 15 µg/mL amounted to 5%.

On to `COc1ccc(Oc2ccc(NCc3ccc(NC(C)=O)cc3)c(NS(=O)(=O)c3ccc(C)cc3)c2)cc1` [Compound 71e, N-(4-{[4-(4-methoxy-phenoxy)-2-(4-toluenesulfonylamino)-phenylamino]-methyl}-phenyl)-acetamide], for which the IC50 (in general, the concentration needed to halve the response being measured) under setting [5] stood at 203 µM.

For the compound `COc1ccc(OCc2ccc(CNC(=O)c3ccc(C)cc3)c(NS(=O)(=O)c3ccc(C)cc3)c2)cc1` [Compound 71ff, N-[4-(4-methoxy-phenoxymethyl)-2-(4-toluenesulfonylamino)-benzyl]-4-toluamide], the inhibition at 15 µg/mL under setting [4] amounted to 4%.

Turning to `Cc1ccc(S(=O)(=O)Nc2ccc(C(=O)Nc3cccnc3)cc2NS(=O)(=O)c2ccc(C)cc2)cc1` [Compound 22d, N-pyridin-3-yl-3,4-bis-(4-toluenesulfonylamino)-benzamide], under setting [1], the inhibition at 15 µg/mL is 0%.

For `CON=C(c1ccccc1)c1ccc(NS(=O)(=O)c2ccc(C)cc2)c(NS(=O)(=O)c2ccc(C)cc2)c1` [Compound 22kk, N-[4-(methoxyimino-phenyl-methyl)-2-(4-toluenesulfonylamino)-phenyl]-4-toluenesulfonamide], the inhibition at 15 µg/mL under setting [1] worked out at 23%.

`COc1ccc(CNc2cc(NS(=O)(=O)c3ccc(C)cc3)c(NS(=O)(=O)c3ccc(C)cc3)cc2[N+](=O)[O-])cc1` [Compound 9f, N-[4-(4-methoxy-benzylamino)-5-nitro-2-(4-toluenesulfonylamino)-phenyl]-4-toluenesulfonamide]: the inhibition at 15 µg/mL under setting [2] was found to be 17%.

For `COc1ccc(Oc2ccc3c(c2)NS(=O)(=O)N3S(=O)(=O)c2ccc(C)cc2)cc1` [Compound 72f, 5-(4-methoxy-phenoxy)-1-(4-toluenesulfonyl)-1,3-dihydro-benzo[1,2,5]thiadiazole 2,2-dioxide], under setting [3], the inhibition at 15 µg/mL is 14%.

In the case of `COc1ccc(Oc2ccc(NS(=O)(=O)c3ccc(C)cc3)c(NC(=O)c3cnc(C)cn3)c2)cc1` [Compound 71h, N-[5-(4-methoxy-phenoxy)-2-(4-toluenesulfonylamino)-phenyl]-5-methyl-pyrazine-2-carboxamide], under setting [4], the inhibition at 15 µg/mL was 0%.

As for `COc1ccc(Oc2ccc(N)c(CNS(=O)(=O)c3ccc(C)cc3)c2)cc1` [Compound 71i, N-[2-amino-5-(4-methoxy-phenoxy)-benzyl]-4-toluenesulfonamide], under setting [4], the inhibition at 15 µg/mL was found to be 13%.

Turning to `Cc1ccc(S(=O)(=O)Nc2cc(NCCCc3cn[nH]c3C)c([N+](=O)[O-])cc2NS(=O)(=O)c2ccc(C)cc2)cc1` [Compound 9k, N-[4-[3-(5-methyl-1H-pyrazol-4-yl)-propylamino]-5-nitro-2-(4-toluenesulfonylamino)-phenyl]-4-toluenesulfonamide], the inhibition at 15 µg/mL under setting [2] came out at 13%.

For `COc1ccc(Oc2ccc3[nH]c(=O)n(S(=O)(=O)c4ccc(C)cc4)c3c2)cc1` [Compound 72a, 6-(4-methoxy-phenoxy)-1-(4-toluenesulfonyl)-1,3-dihydro-benzoimidazol-2-one], the inhibition at 15 µg/mL under setting [3] amounted to 21%.

Turning to `COc1ccc(Oc2ccc(NS(=O)(=O)c3ccc(C)cc3)c(NS(=O)(=O)c3cn(C)cn3)c2)cc1` [Compound 22o, N-[5-(4-methoxy-phenoxy)-2-(4-toluenesulfonylamino)-phenyl]-1-methyl-1H-imidazole-4-sulfonamide], the inhibition at 15 µg/mL under setting [1] was determined as 0%.

Consider `COc1ccc(Oc2ccc(NS(=O)(=O)c3ccc(C)cc3)c(N(C)S(=O)(=O)c3ccc(C)cc3)c2)cc1` [Compound 71dd, N-[4-(4-methoxy-phenoxy)-2-(4-toluenesulfonyl-methyl-amino)-phenyl]-4-toluenesulfonamide], for which, under setting [5], the half-maximal inhibitory concentration (IC50) amounted to 172 µM.

Take `Cc1ccc(S(=O)(=O)Nc2ccc(C(=O)NCc3cccc4ccccc34)cc2NS(=O)(=O)c2ccc(C)cc2)cc1` [Compound 22g, N-naphthalen-1-ylmethyl-3,4-bis-(4-toluenesulfonylamino)-benzamide]: the IC50 under setting [6] turned out to be 18 µM.

Consider `COc1ccc(Oc2ccc(NC(=O)c3ccc(C)cc3)c(NS(=O)(=O)c3ccc(C)cc3)c2)cc1` [Compound 71r, N-[4-(4-methoxy-phenoxy)-2-(4-toluenesulfonylamino)-phenyl]-4-toluamide], for which, under setting [5], the IC50 was 159 µM.

Turning to `Cc1ccc(S(=O)(=O)Nc2ccc(NC(=O)c3ccccc3)cc2N(C(=O)c2ccccc2)S(=O)(=O)c2ccc(C)cc2)cc1` [Compound 71o, N-[3-[benzoyl-(4-toluenesulfonyl)-amino]-4-(4-toluenesulfonylamino)-phenyl]-benzamide], under setting [5], the IC50 is 39 µM.

Consider `Cc1ccc(S(=O)(=O)Nc2ccc(OCCCCCO)cc2NS(=O)(=O)c2ccc(C)cc2)cc1` [Compound 12s, N-[4-(5-hydroxy-pentyloxy)-2-(4-toluenesulfonylamino)-phenyl]-4-toluenesulfonamide], for which the inhibition at 50 µg/mL (Table 3, compound at 50 μg/mL (starred values), read-out: % Inhibition Src (%), * = assayed at 50 μg/mL) stood at 9%.

Consider `Cc1ccc(S(=O)(=O)Nc2ccc(NC(=O)Cc3ccccc3)cc2NS(=O)(=O)c2ccc(C)cc2)cc1` [Compound 22h, 2-phenyl-N-[3,4-bis-(4-toluenesulfonylamino)-phenyl]-acetamide], for which the IC50 under setting [6] was 47 µM.

On to `Cc1ccc(S(=O)(=O)Nc2ccc(C(=NOCc3ccccc3)c3ccccc3)cc2NS(=O)(=O)c2ccc(C)cc2)cc1` [Compound 22ii, N-[4-(benzyloxyimino-phenyl-methyl)-2-(4-toluenesulfonylamino)-phenyl]-4-toluenesulfonamide], for which, under setting [6], the IC50 came to 64 µM.

For the compound `COc1ccc(Oc2ccc(NS(=O)(=O)c3c(C)noc3C)c(NS(=O)(=O)c3ccc(C)cc3)c2)cc1` [Compound 22r, 3,5-dimethyl-N-[4-(4-methoxy-phenoxy)-2-(4-toluenesulfonylamino)-phenyl]-isoxazole-4-sulfonamide], under setting [6], the IC50 was 335 µM.
